We go through four molecules from US20250302837A1, “INHIBITORS OF CHYMASE FOR USE IN THE SELECTIVE RESOLUTION OF THROMBI IN THROMBOTIC OR THROMBOEMBOLIC DISORDERS” (SOCPRA SCIENCES SANTÉ ET HUMAINES S.E.C., priority 2022, published 2025).

In data set [1] the target is Mouse chymase (rmMCP-4) (Mus musculus (Mouse), UniProt P21812). Description: Mouse plasmin degradation by chymase, cleavage products by LC-MS/MS. The data set is classed as biochemical. As to conditions: FIG. 3B.
Description: (§6) The reaction was stopped with an equal volume of formic acid (FA) (for a final concentration of 4% (v/v) in water) and samples were maintained on ice until protein precipitation.
Proteins from in vitro cleavage assays were first precipitated by the addition of trichloroacetic acid (TCA) to a final concentration of 10% (v/v) and incubated for 30 min at −20° C. […] Protein pellet was washed with cold 100% acetone, air dried, and re-suspended in 50 μL of a solution containing 8 M urea, 10 mM HEPES-KOH (pH 7.4). The protein reduction step was carried out by adding DTT (Thermo Fisher Scientific, Waltham, MA, USA) to a final concentration of 5 mM and boil at 95° C. for 2 min, then incubated at room temperature for 30 min. […] Urea concentration was decreased to 2 M by the addition of 150 μL of 50 mM ammonium bicarbonate (NH4HCO3). The proteins were digested by adding 1 g Pierce MS-grade trypsin (Thermo Fisher Scientific, Waltham, MA, USA) and incubated overnight at 30° C. Digestion was stopped by adding trifluoroacetic acid (TFA) to a final concentration of 0.2% (v/v). The peptides were purified with Pierce C18 100-μL tips column (Thermo Fisher Scientific, Waltham, MA, USA). Briefly, the C18 tip column was first moistened by suctioning 100 μL of 100% acetonitrile (ACN) three times, then equilibrated by suctioning 100 μL of 0.1% (v/v) TFA buffer 3 times. […]
Data set [2] has as its target recombinant mouse mMCP-4 (rmMCP-4) (Mus musculus (Mouse), UniProt P21812). Description: Plasmin activity in the presence of murine chymase. The data set is classed as biochemical. The following applies: mouse plasmin + rmMCP-4; fulacimstat 0.1-[…], TY-51469 0.1 or 1 μM. As to the method:
Active murine cathepsin C was diluted to 20 μg/mL in cathepsin C buffer (50 mM MES, 50 mM NaCl, 5 mM DTT, pH 5.5). Activation was performed by adding equal volumes of recombinant chymase and cathepsin C, adding 50 μg/mL heparin and incubating 1 h at room temperature. […] Plasmin activity was determined by the hydrolysis rate of 50 μM of substrate, D-Ala-Leu-Lys-7-amido-4-methylcoumarin (Sigma Aldrich, Saint-Louis, MO, USA) at 37° C. for 1 h, combined in a white 96-well microtitre plate.

For data set [3] the following is noted: oral intake; cited from earlier work.
Data set [4] has as its target plasminogen/plasmin (Homo sapiens (Human), UniProt P00747). Description: Halo assay: tPA-induced fibrinolysis of human blood halos, plasmin inhibitor control. The following applies: 0.1 μM or 1 μM co-administered with tPA, pre-formed halo.
The conditions of data set [5]: cited from earlier work.
Data set [6] has as its system mouse venous stenosis model. As to the kind of experiment: Blood flow (Doppler ultrasound) in venous stenosis model in mice. The data set is classed as in vivo. The text has this: The main goal in thrombosis is to ensure sufficient blood flow for an appropriate maintenance of the tissue surrounding the vessel. […] Mice were anesthetized during the procedure (2% isoflurane; 4% oxygen) and their abdomens were shaved and covered with ultrasound gel.

The target in data set [7] is recombinant hamster chymase. Description: Enzymatic chymase activity assay (hamster).
Data set [8] addresses Plasma kallikrein (Homo sapiens (Human), UniProt P03952). Description: Serine protease selectivity assay: plasma kallikrein. The data set is classed as biochemical. As to the method:
(§1) The potency of test compounds against several other human serine proteases, including coagulation proteases, in buffer was analyzed in biochemical assays based on the fluorimetric detection of aminomethylcoumarine (AMC) cleaved from specific synthetic peptidic substrates by the respective proteases.
(§2) Serine protease assays were comprised of the following enzymes and substrates (final assay concentrations are given).
(§3) Test compounds were diluted in dimethylsulfoxide (DMSO) to final assay concentrations of 0-50 μM. The respective human serine protease and the respective substrate were diluted in buffer solutions (pH 7.4) consisting of 50 mM Tris/HCl, 100 mM NaCl, 5 mM CaCl2, and 0.1% bovine serum albumin to the final concentrations given below. Diluted test compound or DMSO (1 μL) in assay buffer (20 μL), diluted serine protease solution (20 μL), and substrate solution (20 μL) were added to 384-well microtiter plates (Greiner Bio-One, Frickenhausen, Germany).

The subject of data set [9] is mouse tail bleeding model. Description: Tail bleeding time in mouse. The data set is classed as in vivo. As to the method: The tail was cut 3 mm starting from the extremity. The time at which the bleeding stopped was noted. After 30 min, all animals were euthanized.
For data set [10], the target named is Factor Xa (Homo sapiens (Human), UniProt P00742). Description: Serine protease selectivity assay: factor Xa. The data set is classed as biochemical. On the procedure:
as §1, §2, §3

Data set [11] deals with Thrombin (Homo sapiens (Human), UniProt P00734). As to the kind of experiment: Serine protease selectivity assay: thrombin. The data set is classed as biochemical. As to the method:
as §1, §2, §3

Data set [12] concerns the target T1, human chymase (rCMA-1) (Homo sapiens (Human), UniProt P23946). As to the kind of experiment: Plasmin activity in the presence of human chymase. As to conditions: human plasmin + rCMA-1; fulacimstat 0.1-[…], TY-51469 0.1 or 1 μM. Type of data set: biochemical. On the procedure:
Active murine cathepsin C was diluted to 20 μg/mL in cathepsin C buffer (50 mM MES, 50 mM NaCl, 5 mM DTT, pH 5.5). Activation was performed by adding equal volumes of recombinant chymase and cathepsin C, adding 50 μg/mL heparin and incubating 1 h at room temperature.

Data set [13] addresses recombinant human chymase (Homo sapiens (Human), UniProt P23946). Description: Enzymatic chymase activity assay (human).
Data set [14] relates to chymase in mouse thrombus extracts. Description: Intra-thrombus chymase enzymatic activity ex vivo, mouse thrombi. As to conditions: thrombus from venous stenosis in mouse, +10 μM TY-51469. The data set is classed as biochemical. On the procedure: (§4) Plasmin activity was determined by the hydrolysis rate of 50 μM of substrate, D-Ala-Leu-Lys-7-amido-4-methylcoumarin (Sigma Aldrich, Saint-Louis, MO, USA) at 37° C. for 1 h. Chymase activity was determined by the hydrolysis rate of 10 μM of substrate, Suc-Leu-Leu-Val-Tyr-7-amido-4-methylcoumarin (Peptide Institute Inc., Osaka, Japan) at 37° C. for 1 h. The fluorescence released was measured with an Infinite M1000 spectrophotometer (Tecan Group Ltd., Mannerdorf, Switzerland) with λex=370 nm and λem=460 nm.

The target of data set [15] is Plasmin (Homo sapiens (Human), UniProt P00747). As to the kind of experiment: Serine protease selectivity assay: plasmin. Type of data set: biochemical. As to the method: as §1, §2, §3
The target in data set [16] is T1, human chymase (rCMA-1). As to the kind of experiment: Human plasmin degradation by chymase, cleavage products by LC-MS/MS. Type of data set: biochemical. As to conditions: FIG. 3A.
Description: as §6
Proteins from in vitro cleavage assays were first precipitated by the addition of trichloroacetic acid (TCA) to a final concentration of 10% (v/v) and incubated for 30 min at −20° C. […] Protein pellet was washed with cold 100% acetone, air dried, and re-suspended in 50 μL of a solution containing 8 M urea, 10 mM HEPES-KOH (pH 7.4). […] The proteins were digested by adding 1 g Pierce MS-grade trypsin (Thermo Fisher Scientific, Waltham, MA, USA) and incubated overnight at 30° C. Digestion was stopped by adding trifluoroacetic acid (TFA) to a final concentration of 0.2% (v/v). The peptides were purified with Pierce C18 100-μL tips column (Thermo Fisher Scientific, Waltham, MA, USA). Briefly, the C18 tip column was first moistened by suctioning 100 μL of 100% acetonitrile (ACN) three times, then equilibrated by suctioning 100 μL of 0.1% (v/v) TFA buffer 3 times. Each peptide sample was passed on the balanced C18 tip column by 10 succeeding up-and-downs of 100 μL of the sample. This step was performed twice in order to administer the entire sample on the column. The C18 tip column was then washed with 100 μL of 0.1% (v/v) TFA buffer 3 times. […] This step was carried out 3 times to obtain a final volume of 300 μL. […]
The target in data set [17] is Factor XIa (Homo sapiens (Human), UniProt P03951). Description: Serine protease selectivity assay: factor XIa. The data set is classed as biochemical. On the procedure: as §1, §2, §3
Data set [18] concerns mouse venous stenosis (DVT) model. As to the kind of experiment: Venous stenosis model in mouse (IVC), thrombus measurement. Type of data set: in vivo. On the procedure: By doing this, we ensure that the endothelium is not denuded and that a residual flow of 10% in the IVC still remains. The guts were subsequently moved back in their original location in the abdomen and the abdominal cavity was closed in layers with a braided 5.0 absorbable suture. […] The IVCs were dissected post-euthanasia, and thrombi isolated, measured, weighed, and finally stored at −80° C.
(§5) The stenosis was evaluated 24- or 48-hours post-ligation. The IVCs were dissected, and thrombi were isolated, measured, and weighted.
as §5

In data set [19] the target is plasmin in mouse thrombus extracts (Mus musculus (Mouse), UniProt P20918). As to the kind of experiment: Intra-thrombus plasmin enzymatic activity ex vivo, mouse thrombi. As to conditions: thrombus from venous stenosis in mouse, +10 μM TY-51469. The data set is classed as biochemical. As to the method: as §4
Data set [20] deals with Tissue plasminogen activator (Homo sapiens (Human), UniProt P00750). Description: Serine protease selectivity assay: tPA. Type of data set: biochemical. As to the method: as §1, §2, §3
The target in data set [21] is Trypsin (Homo sapiens, UniProt P07477). Description: Serine protease selectivity assay: trypsin. The data set is classed as biochemical. On the procedure: as §1, §2, §3
Data set [22] deals with mouse FeCl3-induced injury thrombosis model. As to the kind of experiment: Ferric chloride-induced injury at the inferior vena cava in mouse. The data set is classed as in vivo. As to conditions: mouse IVC FeCl3 injury; 10 mg/kg TY-51469 intraperitoneal 1 h prior to anesthesia.
Description: A laparotomy was performed, and the guts were gently displaced without injury from the abdominal cavity and conserved in 0.9% NaCl solution (37° C.). The IVC was exposed by separation of the vessel between the renal and iliolumbar veins. […] The guts were subsequently moved back in their original location in the abdomen. Mice were sacrificed 30 min later to access the thrombotic area in the IVC. IVCs were dissected and thrombi were isolated and weighted with an analytical balance (0.1 mg accuracy, Entris II, Sartorius).
Data set [23] has as its target Recombinant human cathepsin G (Homo sapiens (Human), UniProt P08311). Description: Selectivity: cathepsin G assay. Type of data set: biochemical. On the procedure:
Recombinant human cathepsin G (CathG) protein (Protein Technologies, Bayer A G) was used. […] IC50 values were calculated using an in-house software.

Where [24] appears, read: 10 mg/kg TY-51469 i.p. 1 h after start of stenosis, 6 h post-ligation.
Where [25] appears, read: 10 mg/kg TY-51469 i.p. 1 h after start of stenosis, 24 h post-ligation.
The mark [26] stands for this setting: TY-51469 group, non-ligated (pre-ligation baseline).
The mark [27] stands for this setting: TY-51469 0.1 mg/kg i.p. 1 h after initiation of stenosis, observation 24 h.
[28] abbreviates: TY-51469 1 mg/kg i.p. 1 h after initiation of stenosis, observation 24 h.
[29] abbreviates: TY-51469 10 mg/kg i.p. 1 h after initiation of stenosis, observation 24 h.
Where [30] appears, read: TY-51469 10 mg/kg i.p. 24 h after initiation of stenosis, observation 48 h.

Consider `Cn1c(=O)oc2cc(-n3cc(C(=O)O)c(=O)n([C@@H]4CCc5c4cccc5C(F)(F)F)c3=O)ccc21` [fulacimstat, 1-(3-methyl-2-oxo-2,3-dihydro-1,3-benzoxazol-6-yl)-2,4-dioxo-3-[(1R)-4-(trifluoromethyl)-2,3-dihydro-1H-inden-1-yl]-1,2,3,4-tetrahydropyrimidine-5-carboxylic acid], for which the “degradation of plasmin by chymase” value in [1] is “prevented”. For the same molecule, in data set [2], the “plasmin activity (fluorescence generation) in presence of chymase” value is “increased again concentration-dependently”. Moreover, in data set [3], the oral bioavailability result is “bioavailable after oral intake”.

Regarding `Cl.O=c1cc(C2CCNCC2)n2nc3cccc(Cl)c3c2[nH]1` [Example 3 in WO2015067549], the “tPA-induced fibrinolysis of human blood halos” value in [4] is recorded as “very significantly reduced”.

As to “tPA: Recombinant tissue-type plasminogen activator (rtPA, alteplase), the most widely used fibrinolytic drug”, in data set [5], the “dominant half-life in human plasma” value is recorded as less than 5 min.

As for `Cc1c(S(=O)(=O)Nc2ccc(-c3nc(C(=O)O)cs3)cc2S(C)(=O)=O)sc2ccc(F)cc12` [TY-51469, 2-(4-((5-fluoro-3-methylbenzo-[b]thiophene)-2-sulfonamido)-3-(methylsulfonyl)phenyl)thiazole-4-carboxylic acid], the values for the Abdominal aorta velocity in data set [6] (setting [24]), in data set [6] (setting [25]) and in data set [6] (setting [26]) were 487.6 ± 33.1 mm/s, 505.8 ± 40.4 mm/s and 508.2 ± 29.7 mm/s, respectively. Moreover, the “Inferior vena cava velocity” value in data set [6] (setting [24]) is listed as 171.6 ± 27.1 mm/s; in [6] (setting [25]), 158.5 ± 18.3 mm/s; in data set [6] (setting [26]) it was 124.6 ± 28.7 mm/s. The 50% inhibitory concentration (IC50) (in general, the midpoint of a concentration-inhibition curve) in data set [7] was 66 nM; in data set [8], greater than 2000 nM; in data set [10], greater than 2000 nM; in data set [11], greater than 2000 nM; in [13], 20 nM; in [15] it was greater than 2000 nM. Also, the IC50 in data set [17] is greater than 2000 nM; in data set [20], greater than 2000 nM; in data set [21], greater than 2000 nM; in data set [23] (Cathepsin G), 1300 nM. Moreover, the “degradation of plasmin by chymase” value in data set [1] and in data set [16] was “prevented” in each case. For the same molecule, the “impact on bleeding time (in words)” value in data set [9] (mouse tail bleeding model) is listed as “no impact on the bleeding time”. In addition, the Bleeding time prolongation in data set [9] (mouse tail bleeding, TY-51469 10 mg/kg) is listed as 1.0 xfold of Ctr. In [9] (mouse tail bleeding, TY-51469 10 mg/kg IP 1 h prior), this molecule came in with a Bleeding time of 4.08 min. In addition, the “plasmin activity (fluorescence generation) in presence of chymase” value in data set [2] and in data set [12] was “increased again concentration-dependently” each time. The Chymase activity in data set [14] is reported as 0.33 ± 0.25 nM AMC. Also, the Thrombus length is reported as 3.79 mm in data set [18] (setting [27]), 1.79 mm in data set [18] (setting [28]), 0.22 mm in data set [18] (setting [29]) and 1.0 mm in data set [18] (setting [30]). For the same molecule, the Thrombus weight in [18] (setting [27]) came to 8.19 mg; in data set [18] (setting [28]), 4.04 mg; in data set [18] (setting [29]) it was 0.47 mg; in [18] (setting [30]), 1.29 mg; in data set [22] it was 1.31 mg. For the same molecule, the Plasmin activity in data set [19] is listed as 13.16 ± 1.26 nM AMC. Moreover, in data set [23] (cathepsin G vs chymase), the “less potency on cathepsin G than chymase” value was 60 fold.
